Patent publication US7317038B2, “Nerve regeneration promoters containing semaphorin inhibitor as the active ingredient” (Dainippon Sumitomo Pharma Co., Ltd., priority 2000, dated 2008)

What was measured:
[1] = molecular target: T1, mouse semaphorin 3A (Sema3A) (Mus musculus, UniProt O08665); assay: Suppression of growth cone collapse activity of Sema3A (chick embryo dorsal root ganglions); type: cell-based; settings: E7 chick embryo dorsal root ganglions; 2 units/ml Sema3A added 1 hour after compound; concentration where collapse rate = (A+B)/2; read-out: IC50 of inhibition of the growth cone collapse activity of Sema3A (converted)
T1 sequence (O08665 21-772): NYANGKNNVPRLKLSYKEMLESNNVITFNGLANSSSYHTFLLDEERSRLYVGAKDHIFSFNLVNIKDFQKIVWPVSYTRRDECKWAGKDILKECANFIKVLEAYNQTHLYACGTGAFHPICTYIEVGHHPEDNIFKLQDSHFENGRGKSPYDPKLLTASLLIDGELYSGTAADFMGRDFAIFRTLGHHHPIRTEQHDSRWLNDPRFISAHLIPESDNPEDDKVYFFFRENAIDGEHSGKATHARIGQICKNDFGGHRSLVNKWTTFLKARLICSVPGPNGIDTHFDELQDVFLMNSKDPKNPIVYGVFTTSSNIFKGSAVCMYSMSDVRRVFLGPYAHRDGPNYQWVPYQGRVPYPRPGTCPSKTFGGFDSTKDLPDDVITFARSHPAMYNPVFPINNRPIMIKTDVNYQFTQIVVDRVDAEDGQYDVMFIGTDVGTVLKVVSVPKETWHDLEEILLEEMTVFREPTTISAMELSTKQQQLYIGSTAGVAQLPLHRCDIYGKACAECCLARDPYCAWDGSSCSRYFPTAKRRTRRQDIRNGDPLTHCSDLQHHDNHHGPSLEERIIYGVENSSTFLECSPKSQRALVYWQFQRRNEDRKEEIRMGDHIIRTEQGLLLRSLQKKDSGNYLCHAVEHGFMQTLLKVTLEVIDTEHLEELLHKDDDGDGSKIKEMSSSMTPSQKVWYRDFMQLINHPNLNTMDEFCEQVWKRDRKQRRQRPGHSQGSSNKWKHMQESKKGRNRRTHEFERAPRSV
Method: A 96-well plate (Sumitomo Bakelite Co., ltd. ) pre-coated with polylysine was further coated with laminine (20 μg/ml of laminine, for 1 hour at room temperature). Each well was added with 100 μl of medium (F12 medium containing 10% bovine fetal serum, 20 ng/ml of NGF, 100 units/ml of penicillin and 100 μg/ml of streptomycin) which media were then inoculated with dorsal root nerve ganglions excised from E7 (Embryonic day 7) chick embryo and were cultured for 16 to 20 hours under 5% CO2 and at 37° C. Subsequently, the object compounds were added to media at various concentrations and 2 units/ml of mouse semaphorin 3A (Sema3A) was added after cultivating for 1 hour. The cultures were further incubated for another 1 hour. Glutaraldehyde was quickly added therein after said 1 hour to make the final concentration 1%. The cultures were then left for 15 minutes at room temperature so that the tissue sections were fixed, and collapse rates of the growth cones were microscopically observed. A well with no addition of Sema3A was made the control.
The longitudinal and lateral axes in the figures represent the collapse rate of growth cones and the concentration of compounds, respectively. ●▪▴ show the results when Sema3A was added after the addition of the compounds and ◯[…]Δ show those when Sema3A was not added. Further, IC50 (μg/ml) of the inhibitors were determined by the method comprising: calculating the collapse rate of growth cone (A) % of the negative controls (neither compounds nor Sema3a was added); subsequently calculate the collapse rate of growth cone (B) % of the positive controls (compounds were not added but Sema3a was added); and the concentration was chosen for each compound from the chart where the collapse rate of growth cone met (A+B)/2(%), which was made IC50 level. The followings are the results.

Sema3A = molecular target: T2, Sema3A (Mus musculus, UniProt O08665); assay: Collagen gel co-culture: suppression of neurite outgrowth inhibitory action of Sema3A; type: cell-based; set-up: key to suppression of neurite outgrowth inhibitory activity of Sema3A, score / inhibition of neurite outgrowth-inhibitory action of Sema3A, score: neurites outgrew in a complete concentric circular shape just like for the control groups where Sema3A-non-expressing COS7 cells were used, it was scored +++ (a strong inhibitory effect for Sema3A); outgrowth was found almost in a concentric circular shape accompanied with a little suppression of the outgrowth toward the direction of Sema3A-expressing COS cells, it was scored ++; outgrowth toward the direction of Sema3A-expressing COS cells is fairly suppressed to present a crescent shape, it was scored +; outgrowth toward the direction of Sema3A-expressing COS cells was not found at all (no inhibitory effect for Sema3A), it was scored −; settings: Example 16
T2 construct: expressed in transfected cells; host or cells: COS7
T2 sequence (O08665 21-772): T1 sequence (O08665 21-772)
Method: Whether the object compounds (SPF-3059-1, M162, A721) have persistent inhibitory action to Sema3A was analyzed by the collagen gel co-culture method (Neuroprotocols 4, 116, 1994) using Sema3A-expressing COS7 cell clumps and 7- or 8-day-old chick embryo dorsal root ganglions. The Sema3A-expressing COS7 cell clumps were generated as follows. 1 μg of Sema3A-expression plasmid was introduced into COS7 cells (100000 cells/35 mm culture plate), which were cultured overnight, with the FuGENE6 transfection reagent (Roche). 2.5 hours after the starting of the transfection, the COS7 cells were collected by trypsinization and centrifugation, and re-suspended in a medium of 200 μl. 20 μl of the cell suspension was placed on the lid of the culture plate (inside) and the lid was turned over, and then the suspension was cultivated for 20 hours (hanging drop culture) (Cell 78, 425, 1994). When the culture was over, aggregated COS7 cells (clump) were collected and trimmed to a diameter of 0.5 mm. The Sema3A-expressing COS7 cell clump and the above-mentioned dorsal root ganglions were placed in parallel at a distance of 0.5 to 1 mm in a 0.2% collagen gel which was then cultivated in a medium containing the aforementioned compounds at various concentrations for 2 days at 37° C. under 5% CO2. Glutaraldehyde was quickly added therein to make the final concentration 1%. The cultures were then left for 1 hour at room temperature so that the tissues were fixed, and the neurite outgrowth was microscopically observed. The results are found in FIG. 4.
When a medium not containing a subject compound was used, neurites were unable to grow towards the COS7 cell clump with the high concentration of Sema3A and grew only to the opposite direction.
In a similar way as in Example 4, suppression of the neurite outgrowth inhibitory activity was analyzed for the compounds, SPF-3059-1, SPF-3059-2 and SPF-3059-5. When the neurites outgrew in a complete concentric circular shape just like for the control groups where Sema3A-non-expressing COS7 cells were used, it was scored +++ (a strong inhibitory effect for Sema3A). When the outgrowth was found almost in a concentric circular shape accompanied with a little suppression of the outgrowth toward the direction of Sema3A-expressing COS cells, it was scored ++. […] When the outgrowth toward the direction of Sema3A-expressing COS cells was not found at all (no inhibitory effect for Sema3A), it was scored −.

COS7 cells = assay: Effect on cell proliferation (MTT); type: cell-based; settings: Chlorocebus aethiops, COS-7, 48 h, two days, read-out: IC50, inhibitory rate for cell proliferation
Method: COS7 cells were seeded onto a 96-well plate (medium 100 μl/well) at 10000 cells per well. At the same time, SPF-3059-1 of various concentrations was added and the cells were cultivated for two days in the presence of 5% CO2 at 37° C. Each well was then added with 10 μl of MTT solution at 5 mg/ml and cultured for another one hour. Subsequently, the culture supernatant was removed and formazan (an MTT derivative produced in viable cells) accumulated in the cells was dissolved by the addition of 50 μl DMSO and then the absorbance at 570 nm was measured to determine the proliferation of COS7 cells. […] The longitudinal and lateral axes in the figure show cell proliferation and the SPF-3059-1 concentration, respectively. Besides, the standard deviation (n=4) was added to each column.
The same effect on cell proliferation as in Example 9 was examined for the compounds, SPF-3059-1, SPF-3059-2 and SPF-3059-5. The wells with these compounds were served as samples, the wells with PBS were served as control, and the wells for which the experiment was carried out without adding the cells was served as blank. IC50 (μg/ml), the inhibitory rate for cell proliferation, was determined, which is calculated by the equation shown below. The inhibitory rate for cell proliferation (%)=(1−(absorbance of a sample well−absorbance of the blank well)/(absorbance of the control well−absorbance of the blank well))×100

Solubility = type: physicochemical

IC50 [1] | inhibition of neurite outgrowth-inhibitory action of Sema3A, score (Sema3A; 2 μg/ml compound) | Solubility (Solubility; methanol, DMSO) | Solubility (Solubility; water, hexane) | inhibition of neurite outgrowth-inhibitory action of Sema3A, score (Sema3A; 6 μg/ml compound) | inhibition of neurite outgrowth-inhibitory action of Sema3A, score (Sema3A; 20 μg/ml compound) | SMILES | IC50 (COS7 cells)
1780 nM | + | Soluble | Insoluble | + | ++ | CC(=O)c1c(C)c(C(=O)C2COc3cc(O)c(O)c(C(=O)O)c3C2=O)cc2c(=O)c3c(C(=O)O)cc(O)cc3oc12 (stereo not drawn) [SPF-3059-7] | > 100 µg/mL
3570 nM | + | Soluble | Insoluble | + | ++ | CC(=O)c1cc2c(=O)c3c(C(=O)O)c(O)c(O)cc3oc2c(C(C)=O)c1-c1coc2cc(O)cc(C(=O)O)c2c1=O [SPF-3059-12] | > 100 µg/mL

More lines, now with the values behind:

SMILES | IC50 [1] | inhibition of neurite outgrowth-inhibitory action of Sema3A, score (Sema3A; 2 μg/ml compound) | Solubility (Solubility; methanol, DMSO) | Solubility (Solubility; water, hexane) | inhibition of neurite outgrowth-inhibitory action of Sema3A, score (Sema3A; 6 μg/ml compound) | inhibition of neurite outgrowth-inhibitory action of Sema3A, score (Sema3A; 20 μg/ml compound) | IC50 (COS7 cells)
CC(=O)c1c(C)c(C(=O)C2COc3cc(O)c(O)c(C(=O)O)c3C2=O)cc2c(=O)c3cc(O)c(O)cc3oc12 (stereo not drawn) [SPF-3059-3] | 374 nM | +++ | Soluble | Insoluble |  |  | > 100 µg/mL
CC(=O)c1cc2c(=O)c3c(C(=O)O)cc(O)cc3oc2c(C(C)=O)c1-c1coc2cc(O)c(O)c(C(=O)O)c2c1=O [SPF-3059-4] | 3570 nM | − | Soluble | Insoluble | + | ++ | > 100 µg/mL
COCc1c(-c2cc3c(=O)c4c(C(=O)O)c(O)c(O)cc4oc3c(C(C)=O)c2C)oc2cc(O)c(O)c(C(=O)O)c2c1=O [SPF-3059-6] | 169 nM | ++ | Soluble | Insoluble | ++ | +++ | > 100 µg/mL
